Data published in patent US20090215778A1, “Alpha-substituted Arylmethyl Piperazine Pyrazolo [1,5-alpha]Pyrimidine Amide Derivatives” (priority 2007, published 2009).

How the values were obtained:
[1] = target: T1, HIV Env six-helix bundle (6HB) structure (Human immunodeficiency virus type 1 group M subtype B, UniProt P04579); test: Six-helix bundle (6HB) assay; type: cell-based, HIV-1 (strain RF)
T1 construct: H9 cells chronically infected with HIV-1 (H9/HIV-1RF); endogenous in cells; host or cells: H9 cells chronically infected with HIV-1 strain RF (Env is made from the virus in the infected cells, not by transfection)
Outline: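 Chronically HIV-1 RF-infected H9 cells (12-40 days post-infection), 2.5×10^5 per well, were preincubated with compound for 30 min at 37 °C. sCD4 at 1 μg/mL was added for 1 h to trigger Env changes. 6HB-specific rabbit serum (1 h, 37 °C) was then added, followed by PE anti-rabbit (45 min, 4 °C), with flow cytometric fluorescence read-out.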

HIV-1, NL4-3 strain = test: Virus infection assay (virus entry and single-cycle infection); type: cell-based; details: Human immunodeficiency virus 1, NL43, TZM-b1, read-out: Nl4
Outline: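 TZM-b1 cells (CD4, CXCR4, CCR5; LTR-driven lacZ/luciferase reporters) were infected with HIV-1 NL4-3 (MOI 0.01) with 80 μg/mL DEAE-dextran in the presence of test compound, 4 h at 37 °C before adding complete medium. Infection was quantified one day post-infection as chemiluminescent β-galactosidase signal.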

T1 sequence (P04579 32-519): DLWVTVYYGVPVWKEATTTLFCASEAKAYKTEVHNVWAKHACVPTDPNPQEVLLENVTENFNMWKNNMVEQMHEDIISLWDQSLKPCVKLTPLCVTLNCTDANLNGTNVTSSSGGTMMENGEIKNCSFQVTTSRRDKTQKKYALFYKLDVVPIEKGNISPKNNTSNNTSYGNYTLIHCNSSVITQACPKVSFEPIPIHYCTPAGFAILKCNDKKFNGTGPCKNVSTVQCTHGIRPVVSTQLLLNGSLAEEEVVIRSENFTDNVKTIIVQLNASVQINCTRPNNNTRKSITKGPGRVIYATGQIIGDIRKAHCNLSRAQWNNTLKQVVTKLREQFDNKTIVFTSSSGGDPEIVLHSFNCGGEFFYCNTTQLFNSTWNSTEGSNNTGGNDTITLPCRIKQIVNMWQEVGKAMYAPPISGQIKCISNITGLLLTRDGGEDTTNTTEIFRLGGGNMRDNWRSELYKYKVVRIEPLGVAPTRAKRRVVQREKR
T1 sequence (P04579 520-865): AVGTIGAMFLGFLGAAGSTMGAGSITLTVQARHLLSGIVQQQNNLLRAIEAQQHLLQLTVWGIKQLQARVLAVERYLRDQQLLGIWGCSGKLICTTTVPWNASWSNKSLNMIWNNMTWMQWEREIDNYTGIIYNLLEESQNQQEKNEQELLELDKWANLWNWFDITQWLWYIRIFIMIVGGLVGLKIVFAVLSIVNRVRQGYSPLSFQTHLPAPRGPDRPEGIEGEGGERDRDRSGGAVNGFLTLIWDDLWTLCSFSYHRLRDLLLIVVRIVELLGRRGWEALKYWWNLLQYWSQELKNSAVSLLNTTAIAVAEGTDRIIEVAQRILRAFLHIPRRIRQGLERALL

`COc1ccc(-c2nc3c(C(=O)N4CCN(C(CO)c5cccc(OC(F)(F)F)c5)C[C@H]4C)cnn3c(C(F)(F)F)c2C)cc1` (stereo partly drawn) [methanone, [(2R)-4-[2-hydroxy-1-[3-(trifluoromethoxy)phenyl]ethyl]-2-methyl-1-piperazinyl][5-(4-methoxyphenyl)-6-methyl-7-(trifluoromethyl)pyrazolo[1,5-α]pyrimidin-3-yl]-] was tested, and the IC50 [1] was less than 1 µM and the IC50 (HIV-1, NL4-3 strain) was less than 1 µM.
Molecule `COc1ccc(-c2nc3c(C(=O)N4CCN([C@H](C)c5ccccc5)C[C@H]4C)cnn3c(C(F)(F)F)c2C)cc1` [methanone, [5-(4-methoxyphenyl)-6-methyl-7-(trifluoromethyl)pyrazolo[1,5-α]pyrimidin-3-yl][(2R)-2-methyl-4-[(1R)-1-phenylethyl]-1-piperazinyl]-] has an IC50 [1] of less than 1 µM and an IC50 (HIV-1, NL4-3 strain) of less than 1 µM.
For `COc1ccc(-c2nc3c(C(=O)N4CCN([C@@H](C)c5cccc(NC(C)=O)c5)C[C@H]4C)cnn3c(C(F)(F)F)c2C)cc1` [acetamide, N-[3-[(1S)-1-[(3R)-4-[[5-(4-methoxyphenyl)-6-methyl-7-(trifluoromethyl)pyrazolo[1,5-α]pyrimidin-3-yl]carbonyl]-3-methyl-1-piperazinyl]ethyl]phenyl]-], the IC50 [1] was less than 1 µM and the IC50 (HIV-1, NL4-3 strain) was less than 1 µM.
Work on `COc1ccc(-c2nc3c(C(=O)N4CCN(C(CO)c5ccccc5C(F)(F)F)C[C@H]4C)cnn3c(C(F)(F)F)c2C)cc1` (stereo partly drawn) [methanone, [(2R)-4-[2-hydroxy-1-[2-(trifluoromethyl)phenyl]ethyl]-2-methyl-1-piperazinyl][5-(4-methoxyphenyl)-6-methyl-7-(trifluoromethyl)pyrazolo[1,5-α]pyrimidin-3-yl]-] yielded an IC50 [1] of less than 1 µM and an IC50 (HIV-1, NL4-3 strain) of less than 1 µM.
In the case of `COC[C@@H](c1ccccc1)N1CCN(C(=O)c2cnn3c(C(F)(F)F)c(C)c(-c4ccc(OC)cc4)nc23)[C@H](C)C1` [methanone, [(2R)-4-[(1R)-2-methoxy-1-phenylethyl]-2-methyl-1-piperazinyl][5-(4-methoxyphenyl)-6-methyl-7-(trifluoromethyl)pyrazolo[1,5-α]pyrimidin-3-yl]-], the IC50 [1] is reported as less than 1 µM and the IC50 (HIV-1, NL4-3 strain) is reported as less than 1 µM.
`COc1ccc(-c2nc3c(C(=O)N4CCN([C@H](CO)c5cccc(OC)c5)C[C@H]4C)cnn3c(C(F)(F)F)c2C)cc1` [methanone, [(2R)-4-[(1S)-2-hydroxy-1-(3-methoxyphenyl)ethyl]-2-methyl-1-piperazinyl][5-(4-methoxyphenyl)-6-methyl-7-(trifluoromethyl)pyrazolo[1,5-α]pyrimidin-3-yl]-] was tested, and the IC50 [1] was less than 1 µM and the IC50 (HIV-1, NL4-3 strain) was less than 1 µM.
Molecule `COc1ccc(-c2nc3c(C(=O)N4CCN([C@H](CO)c5cccnc5OC)C[C@H]4C)cnn3c(C(F)(F)F)c2C)cc1` [methanone, [(2R)-4-[(1S)-2-hydroxy-1-(2-methoxy-3-pyridinyl)ethyl]-2-methyl-1-piperazinyl][5-(4-methoxyphenyl)-6-methyl-7-(trifluoromethyl)pyrazolo[1,5-α]pyrimidin-3-yl]-] has an IC50 [1] of 1.1 to 10 µM and an IC50 (HIV-1, NL4-3 strain) of 1.1 to 10 µM.
With `COc1ccc(-c2nc3c(C(=O)N4CCN(C(CO)c5c(F)cccc5OC)C[C@H]4C)cnn3c(C(F)(F)F)c2C)cc1` (stereo partly drawn) [methanone, [(2R)-4-[1-(2-fluoro-6-methoxyphenyl)-2-hydroxyethyl]-2-methyl-1-piperazinyl][5-(4-methoxyphenyl)-6-methyl-7-(trifluoromethyl)pyrazolo[1,5-α]pyrimidin-3-yl]-] the IC50 [1] was less than 1 µM and the IC50 (HIV-1, NL4-3 strain) was less than 1 µM.
`COc1ccc(-c2nc3c(C(=O)N4CCN([C@H](c5ccccc5)C(F)(F)F)C[C@H]4C)cnn3c(C(F)(F)F)c2C)cc1` [methanone, [5-(4-methoxyphenyl)-6-methyl-7-(trifluoromethyl)pyrazolo[1,5-α]pyrimidin-3-yl][(2R)-2-methyl-4-[(1R)-2,2,2-trifluoro-1-phenylethyl]-1-piperazinyl]-] showed an IC50 [1] of less than 1 µM and an IC50 (HIV-1, NL4-3 strain) of less than 1 µM.
